Experimental data published in patent US7514106B2, “Compositions and methods for uterine relaxing” (Yangsen Biotechnology Co., Ltd., priority 2006, dated 2009).

Tests used:
[1] = test system: KCl-stimulated rat uterine muscle contraction; test: Inhibition of KCl-stimulated rat uterine muscle strip contraction (organ bath); format: cell-based; conditions: 20 μg/ml compound pretreatment for 10 min before KCl (60 mM)
Experimental: (§1) Uterine relaxing activities on OTC- and KCl-stimulated rat uterine muscle contraction were carried out according to the method described by Ostad S N, Soodi M, Shariffzadeh M, Khorshidi N, and Marzban H. (The effect of fennel essential oil on uterine contraction as a model for dysmenorrhea, pharmacology and toxicology study. Journal of Ethnopharmacology 2001; 76: 299-304.). Female virgin Sprague-Dawley rats (200 g to 300 g) were obtained from the Laboratory Animal Center at Yang-Ming University. They were primed with 5 mg/kg of estradiol (Sigma-Aldrich) 24 hours before the experiments, and then sacrificed by CO2 asphyxiation. Uterine strips free from adhering tissues were mounted under a resting tension of 1 g in a 10 ml organ bath containing dejalon solution gassed with carbogen (95% O2 and 5% CO2) at 31° C., which were then allowed to equilibrate for at least 1 hour. To evaluate the effect on the contractile response induced by PGF2a, a modified Locke-Ringer solution and a maintained temperature of 28° C. were used according to the method described by Murata. P, Hayakawa T, Satoh K, Kase Y, Ishige A, and Sasaki H. (Effects of Dai-kenchu-to, a herbal medicine, on uterine and intestinal motility. Phytotherapy Research 2001; 15: 302-6). Contractions were recorded by force displacements transducers (Grass Instruments USA) using MP100 workstation software (Biopac Systems USA) on a PC. […]

[2] = test system: PGF2a-stimulated rat uterine muscle contraction; test: Inhibition of PGF2a-stimulated rat uterine muscle strip contraction (organ bath); format: cell-based; conditions: 20 μg/ml compound pretreatment for 10 min before PGF2a (1 μM)
Experimental: as §1

Structure (SMILES)	inhibition at 20 µg/mL [1]	inhibition of muscle contraction [2]
C=CC(C)(O)CCC=C(C)C (stereo not shown) [linalool]	27 to 46%	didn't show obvious inhibition
Cc1ccc(C(C)C)c(O)c1 [thymol]	27 to 46%	didn't show obvious inhibition
